Experimental data reported in PubChem BioAssay AID330 (DTP/NCI, 2004).
Values joined by “and” are separate entries in the source; they are usually repeats but may differ in a detail not shown here. Equal values may be shown once. Inconclusive results and toxic doses are left out. How the source made its calls: active means survival T/C of 150% or more; inactive means T/C below 125% in these data.

Tested on: P388 leukemia ip, CD2F1 mice, survival T/C
Experiment: NCI In Vivo Anticancer Drug Screen. Data for tumor model P388 Leukemia (intraperitoneal) in CD2F1 (CDF1) mice
Conditions: endpoint: median survival time, higher = longer survival
Procedure, shortened: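 Mice carrying the transplanted tumor received test compound or vehicle. Survival was recorded in each group, and the value is the treated-group measurement divided by that of the vehicle-treated control group.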

[1] = dose: 50.0 mg/kg/injection, schedule: Q01DX005 (ip), vehicle: saline with Tween-80
[2] = dose: 100.0 mg/kg/injection, schedule: Q01DX005 (ip), vehicle: saline with Tween-80
[3] = dose: 60.0 mg/kg/injection, schedule: Q01DX005 (ip), vehicle: saline with Tween-80
[4] = dose: 120.0 mg/kg/injection, schedule: Q01DX005 (ip), vehicle: saline with Tween-80
[5] = dose: 240.0 mg/kg/injection, schedule: Q01DX005 (ip), vehicle: saline with Tween-80
[6] = dose: 25.0 mg/kg/injection, schedule: Q01DX009 (ip), vehicle: saline
[7] = dose: 50.0 mg/kg/injection, schedule: Q01DX009 (ip), vehicle: saline
[8] = dose: 100.0 mg/kg/injection, schedule: Q01DX009 (ip), vehicle: saline
[9] = dose: 200.0 mg/kg/injection, schedule: Q01DX009 (ip), vehicle: saline
[10] = dose: 50.0 mg/kg/injection, schedule: Q01DX009 (ip), vehicle: saline with Tween-80
[11] = dose: 100.0 mg/kg/injection, schedule: Q01DX009 (ip), vehicle: saline with Tween-80
[12] = dose: 50.0 mg/kg/injection, schedule: Q01DX005 (ip), vehicle: Klucel (hydroxypropylcellulose) (HPC)
[13] = dose: 200.0 mg/kg/injection, schedule: Q01DX009 (ip), vehicle: saline with Tween-80

Measured: T/C

Cc1ccc(NCCCC2CCCN3CCCCC23)c2c(=O)c3ccccc3sc12 (centres undefined)
inactive: dose: 12.5 mg/kg/injection, schedule: Q01DX005 (ip), vehicle: distilled water + Tween-80 100 % of control | dose: 25.0 mg/kg/injection, schedule: Q01DX005 (ip), vehicle: distilled water + Tween-80 91 % of control | dose: 50.0 mg/kg/injection, schedule: Q01DX005 (ip), vehicle: distilled water + Tween-80 90 % of control

S=c1sc2ccccc2n1CN1CCOCC1
inactive: dose: 25.0 mg/kg/injection, schedule: Q01DX005 (ip), vehicle: saline with Tween-80 107 % of control | [1] 104 % of control and 114 % of control | [2] 121 % of control and 124 % of control

CC1CC[N-]C(N)C1.CC1CC[N-]C(N)C1.[Cl][Pt+2][Cl] (centres undefined)
inactive: dose: 100.0 mg/kg/injection, schedule: Q01DX001 (sc), vehicle: olive oil, sesame oil, peanut oil 106 % of control | dose: 200.0 mg/kg/injection, schedule: Q01DX001 (sc), vehicle: olive oil, sesame oil, peanut oil 106 % of control | dose: 400.0 mg/kg/injection, schedule: Q01DX001 (sc), vehicle: olive oil, sesame oil, peanut oil 107 % of control

S=c1cn[nH]c2ccc(S)cc12
inactive: [1] 88 % of control | [2] 99 % of control | dose: 200.0 mg/kg/injection, schedule: Q01DX005 (ip), vehicle: saline with Tween-80 97 % of control

CCOC(=O)NC1CC2c3ccccc3C1c1ccccc12 (centres undefined)
inactive: [3] 101 % of control | [4] 101 % of control | [5] 107 % of control

Cc1cc(C)c(S(=O)(=O)n2ccnc2)c(C)c1
inactive: [6] 111 % of control | [7] 97 % of control | [8] 103 % of control | [9] 106 % of control

Cn1c(=O)c2c(CCCC(=O)O)onc2n(C)c1=O
inactive: dose: 25.0 mg/kg/injection, schedule: Q01DX009 (ip), vehicle: saline with Tween-80 96 % of control | [10] 93 % of control | [11] 90 % of control

NS(=O)(=O)c1ccc(NC(=O)C2C(=O)N(c3ccc(S(N)(=O)=O)cc3)C(=O)/C2=N/O)cc1 (centres undefined)
inactive: [3] 111 % of control | [4] 110 % of control | [5] 101 % of control

NC(=NC(=O)c1ccccc1)N(CCc1ccccc1)CCc1ccccc1
inactive: [3] 104 % of control | [4] 100 % of control | [5] 109 % of control

COc1cc([Se]c2ccccc2)ccc1N(C)C
inactive: dose: 30.0 mg/kg/injection, schedule: Q01DX005 (ip), vehicle: Klucel (hydroxypropylcellulose) (HPC) 101 % of control | dose: 60.0 mg/kg/injection, schedule: Q01DX005 (ip), vehicle: Klucel (hydroxypropylcellulose) (HPC) 107 % of control | dose: 120.0 mg/kg/injection, schedule: Q01DX005 (ip), vehicle: Klucel (hydroxypropylcellulose) (HPC) 100 % of control | dose: 240.0 mg/kg/injection, schedule: Q01DX005 (ip), vehicle: Klucel (hydroxypropylcellulose) (HPC) 113 % of control

OCC1CC(O)CN2CCc3c([nH]c4ccccc34)C2C1 (centres undefined)
inactive: dose: 12.5 mg/kg/injection, schedule: Q01DX005 (ip), vehicle: Klucel (hydroxypropylcellulose) (HPC) 99 % of control | dose: 25.0 mg/kg/injection, schedule: Q01DX005 (ip), vehicle: Klucel (hydroxypropylcellulose) (HPC) 99 % of control | [12] 101 % of control

Nc1nc2nc(/N=N/SCCC(=O)O)[nH]c2c(=O)[nH]1
inactive: [1] 105 % of control | [2] 108 % of control

Cc1cc(NS(=O)(=O)c2ccc(N)cc2)no1.[Ag]
inactive: dose: 12.5 mg/kg/injection, schedule: Q01DX009 (ip), vehicle: Klucel (hydroxypropylcellulose) (HPC) 89 % of control | dose: 25.0 mg/kg/injection, schedule: Q01DX009 (ip), vehicle: Klucel (hydroxypropylcellulose) (HPC) 101 % of control | dose: 50.0 mg/kg/injection, schedule: Q01DX009 (ip), vehicle: Klucel (hydroxypropylcellulose) (HPC) 106 % of control

c1cc[n+](CCC2OCCO2)cc1
inactive: dose: 12.5 mg/kg/injection, schedule: Q01DX009 (ip), vehicle: saline 109 % of control | [6] 109 % of control | [7] 100 % of control | [8] 108 % of control

CC/C(C)=N/SC(c1ccccc1)(c1ccccc1)c1ccccc1
inactive: dose: 100.0 mg/kg/injection, schedule: Q04DX002 (ip), vehicle: saline with Tween-80 101 % of control | dose: 200.0 mg/kg/injection, schedule: Q04DX002 (ip), vehicle: saline with Tween-80 91 % of control | dose: 400.0 mg/kg/injection, schedule: Q04DX002 (ip), vehicle: saline with Tween-80 89 % of control

S=C(N/N=C(\c1ccccc1)c1ccccn1)SCc1ccccc1
inactive: [10] 99 % of control | [11] 90 % of control | [13] 97 % of control

Cc1ccc(S(=O)(=O)C(Br)CC(=O)c2ccccc2)cc1 (centres undefined)
inactive: dose: 100.0 mg/kg/injection, schedule: Q04DX002 (ip), vehicle: saline 100 % of control | dose: 200.0 mg/kg/injection, schedule: Q04DX002 (ip), vehicle: saline 101 % of control | dose: 400.0 mg/kg/injection, schedule: Q04DX002 (ip), vehicle: saline 109 % of control

O=C(C#Cc1ccccc1)C1=Cc2ccccc2OC1
inactive: [12] 94 % of control | dose: 100.0 mg/kg/injection, schedule: Q01DX005 (ip), vehicle: Klucel (hydroxypropylcellulose) (HPC) 95 % of control | dose: 200.0 mg/kg/injection, schedule: Q01DX005 (ip), vehicle: Klucel (hydroxypropylcellulose) (HPC) 96 % of control

CCN=NNc1ccc(C(C)=O)cc1
inactive: dose: 12.5 mg/kg/injection, schedule: Q01DX009 (ip), vehicle: distilled water + Tween-80 95 % of control | dose: 25.0 mg/kg/injection, schedule: Q01DX009 (ip), vehicle: distilled water + Tween-80 109 % of control and 90 % of control | dose: 50.0 mg/kg/injection, schedule: Q01DX009 (ip), vehicle: distilled water + Tween-80 109 % of control and 92 % of control | dose: 100.0 mg/kg/injection, schedule: Q01DX009 (ip), vehicle: distilled water + Tween-80 104 % of control

CCC[CH2][Sn]([CH2]CCC)[CH2]CCC.CCC[CH2][Sn]([CH2]CCC)[CH2]CCC
inactive: dose: 1.56 mg/kg/injection, schedule: Q04DX002 (ip), vehicle: saline with Tween-80 103 % of control | dose: 3.12 mg/kg/injection, schedule: Q04DX002 (ip), vehicle: saline with Tween-80 117 % of control | dose: 6.25 mg/kg/injection, schedule: Q04DX002 (ip), vehicle: saline with Tween-80 103 % of control and 109 % of control | dose: 100.0 mg/kg/injection, schedule: Q04DX003 (ip), vehicle: Klucel (hydroxypropylcellulose) (HPC) 118 % of control

Cc1ccc(S(=O)(=O)NC(=O)O/N=C/c2ccc3c(c2)OCO3)cc1
inactive: [10] 100 % of control | [11] 97 % of control | [13] 100 % of control

CC(C)(CCC#N)C1NC(C(=O)O)CS1 (centres undefined)
inactive: [7] 102 % of control | [8] 99 % of control | [9] 87 % of control

Cc1ccc(S(=O)CF)cc1 (centres undefined)
inactive: dose: 100.0 mg/kg/injection, schedule: Q04DX003 (ip), vehicle: saline with Tween-80 107 % of control

Cn1c2cc3ccccc3cc2nc2cc3c(cc21)c(Cl)c(=O)c1ccccc13
inactive: [10] 109 % of control | [11] 99 % of control | [13] 100 % of control
